We go through one molecule from paper PMC7745420 (ACS Omega, 2020).

For orientation: IC50 means the concentration that gives 50% inhibition. Higher therefore signals lower potency.

The target of this experiment is p97/VCP (Homo sapiens, UniProt P55072). In words: ATPase assay on purified human p97/VCP. Type of experiment: biochemical.
Chain of p97/VCP (P55072 2-806): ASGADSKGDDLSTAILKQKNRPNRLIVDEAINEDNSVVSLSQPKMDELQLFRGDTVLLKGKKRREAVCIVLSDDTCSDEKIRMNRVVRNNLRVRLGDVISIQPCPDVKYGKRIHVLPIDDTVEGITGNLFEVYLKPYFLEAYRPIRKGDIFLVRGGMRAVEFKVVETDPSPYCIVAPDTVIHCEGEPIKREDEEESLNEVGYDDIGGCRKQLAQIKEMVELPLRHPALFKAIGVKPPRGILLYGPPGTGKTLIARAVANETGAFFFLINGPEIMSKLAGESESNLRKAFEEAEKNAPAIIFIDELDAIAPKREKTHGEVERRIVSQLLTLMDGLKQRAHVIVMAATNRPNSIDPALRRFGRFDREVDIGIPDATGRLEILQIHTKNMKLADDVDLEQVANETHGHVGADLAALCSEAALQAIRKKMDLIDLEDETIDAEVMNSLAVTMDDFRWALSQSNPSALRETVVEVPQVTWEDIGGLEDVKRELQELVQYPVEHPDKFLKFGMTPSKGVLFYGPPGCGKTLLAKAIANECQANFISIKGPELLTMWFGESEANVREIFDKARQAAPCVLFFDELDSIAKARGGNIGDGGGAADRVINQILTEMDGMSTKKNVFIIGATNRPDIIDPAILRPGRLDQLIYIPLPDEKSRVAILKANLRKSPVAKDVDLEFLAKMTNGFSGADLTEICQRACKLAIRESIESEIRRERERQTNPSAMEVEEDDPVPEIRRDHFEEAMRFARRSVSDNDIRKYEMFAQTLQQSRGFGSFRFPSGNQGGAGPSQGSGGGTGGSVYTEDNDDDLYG

On to `NCCc1cn(-c2nc(NCc3ccccc3)c3ccccc3n2)c2ccccc12` [FQ393, 2-[3-(2-Aminoethyl)-1H-indol-1-yl]-N-benzylquinazolin-4-amine], for which it took 900 ± 110 nM to reach half-maximal inhibition (IC50).
